# Reference: patent US20210070748A1, “INHIBITORS OF BRUTONS TYROSINE KINASE” (Pharmacyclics LLC, priority 2015, published 2021)
# Assays:
# Assay type in all cases: biochemical
# SRC = SRC (Homo sapiens, UniProt P12931); test: Inhibition of a panel of kinases, in vitro HotSpot kinase assay: SRC; details: D-compounds panel data; 1 μM ATP
# Description: (§1) The degree of inhibition of a panel of kinases is determined using the in vitro HotSpot kinase assay (purified enzymes, ^33P-ATP, an appropriate substrate and 1 μM ATP).
# LCK = LCK (Homo sapiens, UniProt P06239); test: Inhibition of a panel of kinases, in vitro HotSpot kinase assay: LCK; details: D-compounds panel data; 1 μM ATP; read-out: IC50 LCK
# BTK-WT = target: T1, BTK-WT (Homo sapiens, UniProt Q06187); test: Btk in vitro inhibitory activity (one of Method A TR-FRET, Method B electrophoretic mobility shift, Method C radiometric filter binding); details: D-compounds panel data; read-out: IC50 BTK-WT
# T1 construct: purified from insect cells as a full-length construct containing an N-terminal 6X-His tag; His6 (N); made in house; host or cells: insect cells (baculovirus Sf21 in Method B)
# TEC = target: T2, TEC (Homo sapiens, UniProt P42680); test: Inhibition of a panel of kinases, in vitro HotSpot kinase assay: TEC; details: D-compounds panel data; 1 μM ATP
# T2 sequence (P42680 1-631): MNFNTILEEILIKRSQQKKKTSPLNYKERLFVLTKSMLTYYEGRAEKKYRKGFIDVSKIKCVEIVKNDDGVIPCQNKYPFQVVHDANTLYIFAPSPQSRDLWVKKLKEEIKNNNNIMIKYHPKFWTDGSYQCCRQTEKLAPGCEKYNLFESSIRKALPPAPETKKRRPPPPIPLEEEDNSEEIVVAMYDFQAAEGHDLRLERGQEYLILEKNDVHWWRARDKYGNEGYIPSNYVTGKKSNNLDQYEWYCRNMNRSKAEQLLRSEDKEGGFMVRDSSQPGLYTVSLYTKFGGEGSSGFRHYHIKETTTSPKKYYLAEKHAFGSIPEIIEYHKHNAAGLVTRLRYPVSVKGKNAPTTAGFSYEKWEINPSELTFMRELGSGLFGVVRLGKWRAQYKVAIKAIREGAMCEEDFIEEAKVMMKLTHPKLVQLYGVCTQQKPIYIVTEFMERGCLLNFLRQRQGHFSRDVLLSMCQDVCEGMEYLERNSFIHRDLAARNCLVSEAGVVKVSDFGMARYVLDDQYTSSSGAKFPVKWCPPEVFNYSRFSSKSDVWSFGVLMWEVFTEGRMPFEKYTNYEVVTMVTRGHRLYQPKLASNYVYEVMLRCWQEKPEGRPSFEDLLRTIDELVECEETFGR
# Description: as §1
# Sequence of SRC (P12931 whole entry): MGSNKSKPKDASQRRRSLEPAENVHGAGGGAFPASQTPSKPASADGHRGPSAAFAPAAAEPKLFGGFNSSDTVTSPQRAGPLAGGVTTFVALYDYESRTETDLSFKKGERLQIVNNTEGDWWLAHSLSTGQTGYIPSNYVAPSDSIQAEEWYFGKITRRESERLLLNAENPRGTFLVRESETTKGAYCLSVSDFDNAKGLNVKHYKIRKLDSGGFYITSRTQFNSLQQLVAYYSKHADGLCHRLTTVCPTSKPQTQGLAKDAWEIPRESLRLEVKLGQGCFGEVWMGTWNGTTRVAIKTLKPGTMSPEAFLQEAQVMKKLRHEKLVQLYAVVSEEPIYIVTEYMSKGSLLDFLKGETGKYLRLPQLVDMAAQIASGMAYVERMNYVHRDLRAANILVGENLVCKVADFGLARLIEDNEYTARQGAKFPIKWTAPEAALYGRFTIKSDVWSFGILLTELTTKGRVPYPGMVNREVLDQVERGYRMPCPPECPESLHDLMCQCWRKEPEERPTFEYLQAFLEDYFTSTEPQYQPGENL
# T1 sequence (Q06187 whole entry): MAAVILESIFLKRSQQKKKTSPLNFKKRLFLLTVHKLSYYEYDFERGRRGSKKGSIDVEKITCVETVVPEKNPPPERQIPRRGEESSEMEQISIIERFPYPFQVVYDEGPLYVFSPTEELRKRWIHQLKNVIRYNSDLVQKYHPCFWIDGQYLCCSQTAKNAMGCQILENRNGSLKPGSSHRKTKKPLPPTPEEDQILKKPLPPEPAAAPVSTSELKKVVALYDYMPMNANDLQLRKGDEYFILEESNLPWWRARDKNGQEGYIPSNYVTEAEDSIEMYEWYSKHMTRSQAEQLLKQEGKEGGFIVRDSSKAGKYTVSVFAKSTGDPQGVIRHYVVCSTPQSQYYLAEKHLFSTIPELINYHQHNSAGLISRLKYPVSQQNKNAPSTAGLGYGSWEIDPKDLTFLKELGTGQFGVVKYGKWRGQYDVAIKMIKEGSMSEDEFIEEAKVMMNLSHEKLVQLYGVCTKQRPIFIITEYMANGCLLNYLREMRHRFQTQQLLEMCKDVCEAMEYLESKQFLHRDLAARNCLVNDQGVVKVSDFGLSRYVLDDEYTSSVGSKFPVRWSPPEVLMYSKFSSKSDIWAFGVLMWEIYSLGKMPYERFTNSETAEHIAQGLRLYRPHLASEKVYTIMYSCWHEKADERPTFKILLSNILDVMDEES
# Sequence of LCK (P06239 whole entry): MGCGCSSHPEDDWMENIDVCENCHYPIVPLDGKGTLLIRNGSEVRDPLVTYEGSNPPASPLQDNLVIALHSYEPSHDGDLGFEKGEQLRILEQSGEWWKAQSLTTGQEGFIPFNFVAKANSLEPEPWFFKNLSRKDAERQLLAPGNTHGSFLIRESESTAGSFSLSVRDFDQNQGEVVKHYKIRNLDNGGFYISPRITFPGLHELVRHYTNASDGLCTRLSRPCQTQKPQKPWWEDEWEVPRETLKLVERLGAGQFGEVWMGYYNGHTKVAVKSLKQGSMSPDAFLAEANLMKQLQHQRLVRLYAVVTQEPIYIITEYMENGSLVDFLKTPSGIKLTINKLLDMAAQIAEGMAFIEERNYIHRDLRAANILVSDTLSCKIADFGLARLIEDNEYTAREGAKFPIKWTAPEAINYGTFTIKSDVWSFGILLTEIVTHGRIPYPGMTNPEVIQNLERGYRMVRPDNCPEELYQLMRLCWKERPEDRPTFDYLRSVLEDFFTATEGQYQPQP
Compound,IC50 (SRC) [nM],IC50 (LCK) [nM],IC50 (BTK-WT) [nM],IC50 (TEC) [nM]
"C[C@@H]1[C@H](NC(=O)c2ccc(C3CC3)nc2)CCCN1c1cnc(C(N)=O)c(Nc2ccc(N3CCC(F)(F)CC3)cc2)n1 [Example D-305, 5-[(2R,3R)-3-(6-cyclopropylpyridine-3-amido)-2-methylpiperidin-1-yl]-3-{[4-(4,4-difluoropiperidin-1-yl)phenyl]amino}pyrazine-2-carboxamide]",10 to 100,100 to 1000,≤ 10,10 to 100
"C[C@@H]1[C@H](NC(=O)c2ccc(C3CC3)cc2)CCCN1c1cnc(C(N)=O)c(Nc2cnn(C3CCC(F)(F)CC3)c2)n1 [Example D-307, 5-[(2R,3R)-3-(4-cyclopropylbenzamido)-2-methylpiperidin-1-yl]-3-{[1-(4,4-difluorocyclohexyl)-1H-pyrazol-4-yl]amino}pyrazine-2-carboxamide]",100 to 1000,100 to 1000,≤ 10,10 to 100
"C[C@@H]1[C@H](NC(=O)c2ccc(C3CC3)nc2)CCCN1c1cnc(C(N)=O)c(Nc2ccc(OC3CCOCC3)cc2)n1 [Example D-309, 5-[(2R,3R)-3-(6-cyclopropylpyridine-3-amido)-2-methylpiperidin-1-yl]-3-{[4-(oxan-4-yloxy)phenyl]amino}pyrazine-2-carboxamide]",10 to 100,100 to 1000,≤ 10,≤ 10
"C[C@@H]1[C@H](NC(=O)c2ccc(C3CC3)cc2)CCCN1c1cnc(C(N)=O)c(Nc2cc(C3CCOCC3)ns2)n1 [Example D-310, 5-[(2R,3R)-3-(4-cyclopropylbenzamido)-2-methylpiperidin-1-yl]-3-{[3-(oxan-4-yl)-1,2-thiazol-5-yl]amino}pyrazine-2-carboxamide]",10 to 100,10 to 100,≤ 10,≤ 10
"C[C@@H]1[C@H](NC(=O)c2ccc(C3CC3)cc2)CCCN1c1cnc(C(N)=O)c(Nc2cc(C3CCN(C4CCCC4)CC3)ns2)n1 [Example D-311, 3-{[3-(1-cyclopentylpiperidin-4-yl)-1,2-thiazol-5-yl]amino}-5-[(2R,3R)-3-(4-cyclopropylbenzamido)-2-methylpiperidin-1-yl]pyrazine-2-carboxamide]",10 to 100,10 to 100,≤ 10,10 to 100
"C[C@@H]1[C@H](NC(=O)c2ccc(C3CC3)cc2)CCCN1c1cnc(C(N)=O)c(Nc2ccc3c(c2)OC(F)(F)O3)n1 [Example D-315, 5-[(2R,3R)-3-(4-cyclopropylbenzamido)-2-methylpiperidin-1-yl]-3-[(2,2-difluoro-2H-1,3-benzodioxol-5-yl)amino]pyrazine-2-carboxamide]",> 10000,> 10000,1000 to 10000,1000 to 10000

# Now from value to compound:
IC50 (SRC) [nM],IC50 (LCK) [nM],IC50 (BTK-WT) [nM],IC50 (TEC) [nM],Compound
100 to 1000,100 to 1000,≤ 10,10 to 100,"C[C@@H]1[C@H](NC(=O)N(C)C)CCCN1c1cnc(C(N)=O)c(Nc2ccc(N3CCC(F)(F)CC3)cc2)n1 [Example D-306, 3-{[4-(4,4-difluoropiperidin-1-yl)phenyl]amino}-5-[(2R,3R)-3-[(dimethylcarbamoyl)amino]-2-methylpiperidin-1-yl]pyrazine-2-carboxamide]"
10 to 100,10 to 100,≤ 10,≤ 10,"C[C@@H]1[C@H](NC(=O)c2ccc(C(C)(C)O)cc2F)CCCN1c1nnc(C(N)=O)c(Nc2cnn(C)c2)n1 [Example D-308, 3-[(2R,3R)-3-[2-fluoro-4-(2-hydroxypropan-2-yl)benzamido]-2-methylpiperidin-1-yl]-5-[(1-methyl-1H-pyrazol-4-yl)amino]-1,2,4-triazine-6-carboxamide]"
≤ 10,< 10,≤ 10,≤ 10,"C[C@@H]1[C@H](NC(=O)c2ccc(C3CC3)cc2)CCCN1c1cnc(C(N)=O)c(Nc2cc(C3CCN(C)CC3)ns2)n1 [Example D-312, 5-[(2R,3R)-3-(4-cyclopropylbenzamido)-2-methylpiperidin-1-yl]-3-{[3-(1-methylpiperidin-4-yl)-1,2-thiazol-5-yl]amino}pyrazine-2-carboxamide]"
10 to 100,10 to 100,≤ 10,≤ 10,"C[C@@H]1[C@H](NC(=O)c2ccc(C3CC3)cc2F)CCCN1c1cnc(C(N)=O)c(Nc2ccc(N3CCNCC3)c(F)c2)n1 [Example D-313, 5-[(2R,3R)-3-(4-cyclopropyl-2-fluorobenzamido)-2-methylpiperidin-1-yl]-3-{[3-fluoro-4-(piperazin-1-yl)phenyl]amino}pyrazine-2-carboxamide]"
10 to 100,100 to 1000,≤ 10,10 to 100,"C[C@@H]1[C@H](NC(=O)N(C)C2CC2)CCCN1c1cnc(C(N)=O)c(Nc2cnn(C)c2)n1 [Example D-314, 5-[(2R,3R)-3-{[cyclopropyl(methyl)carbamoyl]amino}-2-methylpiperidin-1-yl]-3-[(1-methyl-1H-pyrazol-4-yl)amino]pyrazine-2-carboxamide]"
